Values quoted from earlier work as cited in patent US20090214598A1, “Monovalent and polyvalent synthetic polysaccharide antigens for immunological intervention in disease” (Eli Lilly and Company, priority 2005, published 2009).

Conditions: literature reports (U.S. Pat. No. 4,395,399; Chedid 1983)

SMILES: CC(=O)N[C@H]1C(O)O[C@H](CO)[C@@H](O)[C@@H]1O[C@H](C)C(=O)N[C@@H](C)C(=O)N[C@H](CCC(=O)O)C(N)=O (mixture of isomers) [MDP, muramyl dipeptide]
- inflammatory response as reported: inflammatory in nature
